According to patent US20260130933A1, “PHARMACEUTICAL COMPOSITION FOR PREVENTION OR TREATMENT OF NEPHROPATHY AND/OR DIABETES MELLITUS, COMPRISING ENAVOGLIFLOZIN” (DAEWOONG PHARMACEUTICAL CO., LTD., priority 2022, published 2026):

Assay: Example 2: phase 3 trial, enavogliflozin 0.3 mg vs dapagliflozin 10 mg once a day for 24 weeks added to metformin in patients with type 2 diabetes (same efficacy, exploratory and safety endpoints)
Format: in vivo, human
Protocol: Subjects who met the inclusion/exclusion criteria were administered a placebo of the clinical trial drug under single-blind (subject blinding) conditions during a 2-week run-in period while continuing to receive metformin. […] The randomized subjects were administered two tablets of the clinical trial drug for each administration group once a day, and then visited the institution at weeks 6, 12, 18, and 24 during the 24-week administration period to conduct efficacy and safety evaluations.
• 1. Change in HbA1c at week 24 after administration of clinical trial drug compared to Visit 2 (randomization)
• 1. Change in HbA1c at each time point of weeks 6, 12, and 18 after administration of clinical trial drug compared to Visit 2 (randomization) • 2. Change in FPG at each time point of weeks 6, 12, 18, and 24 after administration of clinical trial drug compared to Visit 2 (randomization) • 3. Proportion of subjects achieving HbA1c<7% at each time point of weeks 6, 12, 18, and 24 after administration of clinical trial drug • 4. Proportion of subjects achieving HbA1c<6.5% at each time point of weeks 6, 12, 18, and 24 after administration of clinical trial drug • 5. Proportion of subjects achieving therapeutic response (HbA1c change (HbA1c at Visit 2-HbA1c at each evaluation time point)>0.5% or HbA1c<7% at each evaluation time point compared to Visit 2 (randomization)) at each time point of weeks 6, 12, 18 and 24 after administration of clinical trial drug
• 1. Change in fasting c-peptide at each time point of weeks 6, 12, 18, and 24 after administration of clinical trial drug compared to Visit 2 (randomization) • 2. Change in body weight at each time point of weeks 6, 12, 18, and 24 after administration of clinical trial drug compared to Visit 2 (randomization) • 3. Change in fasting lipid concentration (total cholesterol, LDL-C, HDL-C, and triglycerides) at each time point of weeks 6, 12, 18, and 24 after administration of clinical trial drug compared to Visit 2 (randomization) • 4. Changes in systolic or diastolic blood pressure at each time point of weeks 6, 12, 18, and 24 after administration of clinical trial drug compared to Visit 2 (randomization) • 5. Changes in β-cell function and insulin resistance measured by HOMA-β and HOMA-IR at each time point of weeks 6, 12, 18, and 24 after administration of clinical trial drug compared to Visit 2 (randomization) • 6. Changes in renal function-related indicators (UACR, UGCR) measured by UACR at each time point of weeks 6, 12, 18, and 24 after administration of clinical trial drug compared to Visit 2 (randomization) • 7. Changes in obesity-related indicators (adiponectin, leptin) at each time point of weeks 6, 12, 18, and 24 after administration of clinical trial drug compared to Visit 2 (randomization)

[1] = week 6, per-protocol set, enavogliflozin 0.3 mg, dapagliflozin 10 mg
[2] = week 12, modified per-protocol set 1, enavogliflozin 0.3 mg, dapagliflozin 10 mg
[3] = week 12, per-protocol set, enavogliflozin 0.3 mg vs dapagliflozin 10 mg
[4] = week 12, per-protocol set, enavogliflozin 0.3 mg, dapagliflozin 10 mg

Structure (SMILES): OC[C@H]1O[C@@H](c2cc(Cc3ccc(C4CC4)cc3)c(Cl)c3c2CCO3)[C@H](O)[C@@H](O)[C@@H]1O [Enavogliflozin, (2S,3R,4R,5S,6R)-2-(7-chloro-6 (4-cyclopropylbenzyl)-2,3-dihydrobenzofuran-4-yl)-6-(hydroxymethyl)tetrahydro-2H-pyran-3,4,5-triol]
- Change from baseline in fasting c-peptide, ANCOVA LS mean (SE) [1]: −0.07(0.02) ng/mL
- Change from baseline in fasting c-peptide, Mean (SD) [1]: −0.06(0.19) ng/mL
- Change from baseline in fasting c-peptide, Median [1]: -0.03 ng/mL
- FPG, Mean (SD) [1]: 118.44 mg/dL
- FPG, Median [1]: 115.00 mg/dL
- HbA1c, Mean (SD) [1]: 7.13%
- HbA1c, Median [1]: 6.98%
- Subjects achieving HbA1c target of <6.5%, (%) [1]: (12.63) %
- Subjects achieving therapeutic glycemic response, (%) [1]: (78.95) %
- body weight, Mean (SD) [1]: 68.61(11.27) kg
- body weight, Median [1]: 67.30 kg
- fasting c-peptide, Mean (SD) [1]: 0.66(0.24) ng/mL
- fasting c-peptide, Median [1]: 0.60 ng/mL
- FPG change from baseline, LS mean (SE) (week 12): −29.70(1.96) mg/dL
- HOMA-IR change from baseline, LS mean (SE) (week 12): −1.58(0.17)
- HOMA-β change from baseline, LS mean (SE) (week 12): 5.57(3.08)
- HbA1c change from baseline, LS mean (SE) (week 12): −0.83(0.06) % p
- LDL-C change from baseline, LS mean (SE) (week 12): 1.86(1.68) mg/dL
- Subjects achieving HbA1c target of <7% (week 12): (68.09) %
- Subjects achieving HbA1c<6.5% (week 12): 15.96%
- Subjects achieving therapeutic response (HbA1c change >0.5% or HbA1c<7%) (week 12): 88.30%
- UACR change from baseline, LS mean (SE) (week 12): −21.65(7.38) g/kg
- UGCR change from baseline, LS mean (SE) (week 12): 64.70(2.58) mg/mg
- diastolic blood pressure change from baseline, LS mean (SE) (week 12): −4.19(0.79) mmHg
- fasting c-peptide change from baseline, LS mean (SE) (week 12): −0.08(0.02) ng/ml
- leptin change from baseline, LS mean (SE) (week 12): −2.64(0.49) ng/mL
- FPG change from baseline, LS mean difference (week 12, vs dapagliflozin): 0.42 mg/dL
- HDL-C change from baseline, LS mean difference (week 12, vs dapagliflozin): 0.06 mg/dL
- HOMA-IR change from baseline, LS mean difference (week 12, vs dapagliflozin): 0.02
- HOMA-β change from baseline, LS mean difference (week 12, vs dapagliflozin): −3.17
- HbA1c change from baseline, LS mean difference (week 12, vs dapagliflozin): −0.03 % p
- LDL-C change from baseline, LS mean difference (week 12, vs dapagliflozin): 1.30 mg/dL
- Odds ratio for achieving HbA1c<6.5% (week 12, vs dapagliflozin): 0.51
- Odds ratio for achieving HbA1c<7% (week 12, vs dapagliflozin): 1.21
- Odds ratio for achieving therapeutic response (week 12, vs dapagliflozin): 2.04
- UACR change from baseline, LS mean difference (week 12, vs dapagliflozin): −18.27
- UGCR change from baseline, LS mean difference (week 12, vs dapagliflozin): 19.57 mg/mg
- body weight change from baseline, LS mean difference (week 12, vs dapagliflozin): -0.19 kg
- diastolic blood pressure change from baseline, LS mean difference (week 12, vs dapagliflozin): 0.16 mmHg
- fasting c-peptide change from baseline, LS mean difference (week 12, vs dapagliflozin): 0.01 ng/mL
- leptin change from baseline, LS mean difference (week 12, vs dapagliflozin): 0.07 ng/mL
- systolic blood pressure change from baseline, LS mean difference (week 12, vs dapagliflozin): 0.26 mmHg
- total cholesterol change from baseline, LS mean difference (week 12, vs dapagliflozin): 3.01 mg/dL
- triglyceride change from baseline, LS mean difference (week 12, vs dapagliflozin): 2.57 mg/dL
- Subjects achieving HbA1c target of <7% (week 12, listed as enavogliflozin): 68.09%
- Change from baseline in total cholesterol, ANCOVA LS mean difference (week 12, modified per-protocol set 1, enavogliflozin 0.3 mg vs dapagliflozin 10 mg): 3.01 mg/dL
- Change from baseline in Total cholesterol, ANCOVA LS mean (SE) [2]: 7.26(1.98) mg/dL
- Change from baseline in Total cholesterol, Mean (SD) [2]: 5.74(18.70) mg/dL
- Change from baseline in total cholesterol, Median [2]: 6.00 mg/dL
- fasting Total cholesterol, Mean (SD) [2]: 157.39(31.50) mg/dL
- fasting Total cholesterol, Median [2]: 150.00 mg/dL
- Change from baseline in FPG, ANCOVA LS mean difference [3]: 0.42 mg/dL
- Change from baseline in HbA1c, ANCOVA LS mean difference [3]: −0.03 % p
- Change from baseline in body weight, ANCOVA LS mean difference [3]: -0.19 kg
- Change from baseline in fasting c-peptide, ANCOVA LS mean difference [3]: 0.01 ng/mL
- Odds ratio for achieving HbA1c target of <6.5%, logistic regression model [3]: 0.51
- Odds ratio for achieving therapeutic glycemic response, logistic regression model [3]: 2.04
- Change from baseline in FPG, ANCOVA LS mean (SE) [4]: -29.70 mg/dL
- Change from baseline in FPG, Mean (SD) [4]: -27.74 mg/dL
- Change from baseline in FPG, Median [4]: -26.00 mg/dL
- Change from baseline in HbA1c, ANCOVA LS mean (SE) [4]: −0.83 % p
- Change from baseline in HbA1c, Mean (SD) [4]: −0.77 % p
- Change from baseline in HbA1c, Median [4]: −0.65 % p
- Change from baseline in body weight, ANCOVA LS mean (SE) [4]: −2.81(0.23) kg
- Change from baseline in body weight, Mean (SD) [4]: −2.78(2.48) kg
- Change from baseline in body weight, Median [4]: -2.75 kg
- Change from baseline in fasting c-peptide, ANCOVA LS mean (SE) [4]: −0.08(0.02) ng/mL
- Change from baseline in fasting c-peptide, Mean (SD) [4]: −0.07(0.21) ng/mL
- Change from baseline in fasting c-peptide, Median [4]: -0.07 ng/mL
- FPG, Mean (SD) [4]: 117.00 mg/dL
